Experimental data: publication PMC6797515, “Effects of Bakuchiol on chondrocyte proliferation via the PI3K‐Akt and ERK1/2 pathways mediated by the estrogen receptor for promotion of the regeneration of knee articular cartilage defects” (Cell Proliferation, 2019)

How the values were obtained:
rat chondrocytes = assay: CCK8 cell viability / cytotoxicity assay; assay type: cell-based
Method: Rat chondrocytes were isolated using a method adapted from a previous study.9 Briefly, articular cartilage was retrieved from the knees of healthy Sprague-Dawley rats (male, n = 5, weight: 150 g). The cartilage was minced, and pieces digested with 2 mg/mL of collagenase type II (Gibco) for 2 hours. After removal of undigested tissue, the cells were cultured in DMEM/F12 (1:1) supplemented with 10% FBS. Passage 2-3 (P2-3) cells were used in the experimental studies. The bakuchiol was purchased from Selleck ([…]). Animal experiment protocol was reviewed and approved by the Institutional Review Board (IRB) of Chongqing University. Cell viability in response to BAK was evaluated using a cell counting kit-8 (CCK8) assay which was also utilized to assess cell viability. Cells were seeded at a density of 1 × 10^4 cells/well in a 24-well plate and the cytotoxicity of BAK tested using concentrations of 1 to 100 μmol/L for 3 days. The cells were then treated with 10 μmol/L BAK for 7 days. The cells were then washed with PBS and incubated in serum-free medium containing 10% CCK8 reagent for 2-3 hours at 37°C in an atmosphere containing 5% CO2. Aliquots were pipetted into a 96-well plate and absorbance at 490 nm measured using a plate reader (Bio-Rad).

chondrocytes = assay: EdU DNA proliferation assay; assay type: cell-based, rat; details: 10 and 20 µmol/L, 24 and 48 hours
Method: Chondrocyte proliferation was quantified using an ethynyl deoxyuridine (EdU) DNA in vitro proliferation detection kit (Guangzhou RiboBio) using flow cytometry, in accordance with the manufacturer's instructions.14 Images of cells were captured by light with microscopy using Image‐Pro Plus 6.0 software (Media Cybernetics). The number of EdU‐labelled cells was calculated from fields randomly selected in each well. Numbers of cells in each phase of the cell cycle were calculated using a BD FACS Calibur Flow Cytometer at a 488 nm excitation wavelength.

CDK1 [1] = assay: qRT-PCR gene expression of CDK1; assay type: cell-based, rat; details: 10 µmol/L, 48 hours
From the text: (§1) Cells were harvested using Trizol reagent (Invitrogen), followed by RNA isolation. Each sample was reverse transcribed to cDNA using a RevertAid First Strand cDNA Synthesis Kit (Thermo Fisher Scientific). The reverse transcription product was then used as a template to perform real‐time polymerase chain reaction (PCR) on a StepOne Plus thermal cycler (Applied Biosystems) using PowerUp™ SYBR™ Green Master Mix (Applied Biosystems), following the manufacturer's guidelines. The primers for CDK1 (F: 5′‐[…]‐3′; R: 5′‐[…]‐3′), E2F1 (F: 5′‐[…]‐3′; 5′‐[…]‐3′), MKI67 (F: 5′‐[…]‐3′; R: 5′‐[…]‐3′) were synthesized by Invitrogen. The final data were analysed by the 2^−ΔΔ ^C ^t method.

E2F1 [2] = assay: qRT-PCR gene expression of E2F1; assay type: cell-based, rat; details: 10 µmol/L, 48 hours
From the text: as §1

MKI67 [3] = assay: qRT-PCR gene expression of MKI67; assay type: cell-based, rat; details: 10 µmol/L, 48 hours
From the text: as §1

CDK1 [4] = assay: Western blotting for CDK1 protein; assay type: cell-based, rat; details: for CDK1 protein levels in chondrocytes: inhibitor 1 µmol/L added to 10 µmol/L BAK
Method: (§2) Western blotting analysis was performed as described previously. After separation using SDS‐PAGE then transfer to PVDF membranes, the target proteins were detected after incubating with primary antibodies for CDK1 (Abcam: ab18, 1:1000), E2F1 (Abcam: ab179445, 1:1000), phosphorylated Akt (CST: 9271, 1:1000), Akt (CST: 9272, 1:1000), phosphorylated ERK1/2 (Abcam: ab201015, 1:1000), ERK1/2 (Abcam: ab36991, 1:1000) and ERα (Santa Cruz: sc‐8005, 1:200). The membranes were then incubated with the corresponding secondary antibody at 37°C for 1 hour Finally, the immunoreactive bands were developed using SuperSignal West Femto Maximum sensitivity substrate (Thermo Fisher Scientific), and the images analysed using Quantity One Software (Bio‐Rad). The PI3K‐Akt and ERK signalling pathways were involved in the regulation of cell proliferation by BAK. Two methods of analysis were conducted to verify this. Firstly, the cells were treated with BAK or BAK plus the Akt or ERK inhibitors PI‐103 and SCH772984, respectively. Following culture of the cells, Western blotting was used to ascertain if Akt or ERK1/2 were phosphorylated and to verify the association between BAK and the activation of the Akt and ERK1/2 pathways. Secondly, ERα siRNA (ERα si‐R) was used to knockdown estrogen receptor in the target cells, which were then further cultured for 48 hours with BAK. Meanwhile, the non‐treatment group was used as the control. Finally, the protein expression levels of CDK1 and phosphorylated and total Akt (p/t‐Akt) were detected using Western blotting so as to confirm the involvement of the ERα/PI3K‐Akt/ERK axis signalling pathways in cell proliferation by BAK stimulation.

E2F1 [5] = assay: Western blotting for E2F1 protein; assay type: cell-based, rat; details: BAK 1 to 10 µmol/L for 3 d
Method: Western blotting analysis was performed as described previously. After separation using SDS‐PAGE then transfer to PVDF membranes, the target proteins were detected after incubating with primary antibodies for CDK1 (Abcam: ab18, 1:1000), E2F1 (Abcam: ab179445, 1:1000), phosphorylated Akt (CST: 9271, 1:1000), Akt (CST: 9272, 1:1000), phosphorylated ERK1/2 (Abcam: ab201015, 1:1000), ERK1/2 (Abcam: ab36991, 1:1000) and ERα (Santa Cruz: sc‐8005, 1:200). The membranes were then incubated with the corresponding secondary antibody at 37°C for 1 hour Finally, the immunoreactive bands were developed using SuperSignal West Femto Maximum sensitivity substrate (Thermo Fisher Scientific), and the images analysed using Quantity One Software (Bio‐Rad).

Akt = assay: Western blotting for phosphorylated/total Akt; assay type: cell-based, rat
Method: as §2, with “Following culture of the cells, Western blotting was used to ascertain if Akt or ERK1/2 were phosphorylated and to verify the association between BAK and the activation of the Akt and ERK1/2 pathways. Secondly, ERα siRNA (ERα si‐R) was used to knockdown estrogen receptor in the target cells, which were then further cultured for 48 hours with BAK. Meanwhile, the non‐treatment group was used as the control.” left out

ERK1/2 = assay: Western blotting for phosphorylated/total ERK1/2; assay type: cell-based, rat
Method: as §2, with “Following culture of the cells, Western blotting was used to ascertain if Akt or ERK1/2 were phosphorylated and to verify the association between BAK and the activation of the Akt and ERK1/2 pathways. Secondly, ERα siRNA (ERα si‐R) was used to knockdown estrogen receptor in the target cells, which were then further cultured for 48 hours with BAK. Meanwhile, the non‐treatment group was used as the control.” left out

MKI67 [6] = assay: Immunofluorescent staining of MKI67 in chondrocytes; assay type: cell-based, rat; details: 10 µmol/L, relative to control
[7] = system: knee articular cartilage defect; assay: Rat knee articular cartilage defect model, histological evaluation; assay type: in vivo, Sprague‐Dawley (SD) rats; details: Matrigel with bakuchiol 100 µmol/L implanted locally
Method: (§3) Animal experiments were conducted in accordance with protocols approved by the Chongqing University Animal Care and Use Committee. For the cartilage injury model, a 0.5‐mm‐deep thickness defect was created through the articular cartilage and subchondral bone of the patellar groove of Sprague‐Dawley (SD) rats (200‐250 g) using a micro‐electrical drill. Matrigel mixed with bakuchiol (100 µmol/L) was implanted locally to fill the cartilage defect. Articular cartilage samples were harvested after 1 and 2 weeks post‐implantation for macroscopic and histological evaluation, with analysis by micro‐CT. The harvested samples were embedded in paraffin, sectioned for 10 μm thickness and then stained with haematoxylin and eosin (H&E), Safranin‐O green and Alcian blue. The sections were scored histologically in accordance with previous studies.9, 17, 18 The relative area of each defect (Figure 6: area within the dashed line) in the different groups was measured using Image J. The relative content of cartilage matrix was ascertained from the degree of Safranin staining (Red area) and GAG content by Alcian blue staining (Positive blue area). All morphological measurements were performed using Image J. The mean histological scores for each group were statistically analysed, with t tests performed between the BAK‐treated group and control. In addition, the histological immunofluorescent staining for Ki67, p‐Akt, and p‐ERK was performed to verify the in vivo mechanisms of BAK on cell proliferation.

Ki67, p‐ERK and p‐Akt = assay: Immunofluorescent staining of Ki67, p-Akt, p-ERK at the defect site; assay type: in vivo, Sprague‐Dawley (SD) rats; details: 1 and 2 weeks post-injury
Method: as §3, with “In addition, the histological immunofluorescent staining for Ki67, p‐Akt, and p‐ERK was performed to verify the in vivo mechanisms of BAK on cell proliferation.” left out

estrogen receptor = system: estrogen receptor; design: method as in earlier work; details: ref 11 (Lim et al); cited from earlier work

C=C[C@@](C)(/C=C/c1ccc(O)cc1)CCC=C(C)C [BAK, bakuchiol]
cell viability vs control (rat chondrocytes; 10 µmol/L, 7 days of culture): promoted cell viability
toxicity in the cells (rat chondrocytes; 100 µmol/L): clear toxicity
cytotoxic effects on chondrocytes (rat chondrocytes; 1 to 100 µmol/L, after 24 hours): no cytotoxic effects
proliferation of chondrocytes vs control (rat chondrocytes; 5, 10 and 20 µmol/L, control 0.1% DMSO): increased proliferation significantly
EC50 (rat chondrocytes; Rattus norvegicus, Chondrocyte, CCK8, chondrocytes, 24 h, Figure 1A, read-out: EC50 of BAK): 8.9 µM
IC50 (rat chondrocytes; Rattus norvegicus, Chondrocyte, CCK8, chondrocytes, Figure S1, read-out: IC50 (toxicity in the cells)): 48.5 µM
BAK concentration in the medium with significant cytotoxicity (rat chondrocytes; chondrocytes): > 20 µmol/L
cell proliferation (EdU staining) (chondrocytes): significantly promoted cell proliferation
mRNA level of CDK1 (CDK1 [1]): significantly up‐regulated
mRNA level of E2F1 (E2F1 [2]): significantly up‐regulated
mRNA level of MKI67 (MKI67 [3]): significantly up‐regulated
CDK1 protein synthesis (CDK1 [4]; 10 µmol/L BAK, Figure 4): significantly stimulated CDK1 protein synthesis
CDK1 protein synthesis (CDK1 [4]; BAK 1 to 10 µmol/L for 3 d): stimulated CDK1 protein synthesis
E2F1 protein (translation level) (E2F1 [5]): up‐regulated E2F1 at the translation level
ratio of phosphorylated/total Akt (p/t-Akt) (Akt; 10 µmol/L BAK): improved the ratios
ratio of phosphorylated/total ERK1/2 (p/t-ERK1/2) (ERK1/2; 10 µmol/L BAK): improved the ratios
MKI67 protein synthesis (immunofluorescent staining) (MKI67 [6]): clearly promoted MKI67 protein synthesis
histological score of the defects ([7]; 1 week): 3.60 ± 0.54
histological score of the defects ([7]; 2 weeks): 5.40 ± 0.55
content of GAG vs control ([7]; Alcian blue): clearly different
expression of Ki67, p-ERK and p-Akt in vivo (Ki67, p‐ERK and p‐Akt): promoted the expression
estrogen receptor-binding affinity (estrogen receptor): high estrogen receptor‐binding affinity

Oc1cccc(-c2nc(N3CCOCC3)c3oc4ncccc4c3n2)c1 [PI‐103]
CDK1 protein levels in chondrocytes (CDK1 [4]): reduced
p/t-Akt ratio in chondrocytes (Akt; 1 µmol/L PI-103 added to 10 µmol/L BAK): reduced

O=C(Nc1ccc2[nH]nc(-c3ccncc3)c2c1)[C@@H]1CCN(CC(=O)N2CCN(c3ccc(-c4ncccn4)cc3)CC2)C1 [SCH772984]
CDK1 protein levels in chondrocytes (CDK1 [4]): reduced
p/t-ERK1/2 ratio in chondrocytes (ERK1/2; 1 µmol/L SCH772984 added to 10 µmol/L BAK): reduced
